From ChEMBL document CHEMBL1201862, “PubChem BioAssay data set” (2004)
Active and inactive are the calls of the source.

Columns and labels:
cells [1] = type: functional, cell-based
[2] = molecular target: T1, Trace amine-associated receptor 1 (Homo sapiens, UniProt Q96RJ0); test: Fluorescence-based cell-based high throughput dose response assay to identify agonists of the human trace amine associated receptor 1 (TAAR1).; type: functional
T1 sequence (Q96RJ0 whole entry): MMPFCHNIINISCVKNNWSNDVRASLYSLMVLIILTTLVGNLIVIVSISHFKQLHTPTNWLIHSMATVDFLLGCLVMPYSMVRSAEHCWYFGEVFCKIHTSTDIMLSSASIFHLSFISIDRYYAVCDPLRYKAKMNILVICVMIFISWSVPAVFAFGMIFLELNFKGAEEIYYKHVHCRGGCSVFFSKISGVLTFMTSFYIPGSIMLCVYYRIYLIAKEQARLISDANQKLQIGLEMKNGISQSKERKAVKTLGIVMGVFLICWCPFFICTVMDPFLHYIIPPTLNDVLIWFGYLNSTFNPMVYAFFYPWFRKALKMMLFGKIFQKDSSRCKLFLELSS

[3] = molecular target: T1, Trace amine-associated receptor 1; test: Counterscreen for agonists of the human trace amine associated receptor 1 (hTAAR1): Fluorescence-based cell-based high throughput dose response assay to identify hTAAR1 agonist that also desensitize TAAR1 receptor response.; type: functional
cells [4] = type: functional, cell-based; remark: listed apart in the source
[5] = molecular target: T2, Heat shock factor protein 1 (Mus musculus, UniProt P38532); test: decrease of HSF1-responsive luciferase luminescence – cell-based, NIH3T3, dose retest, confirmation (AID 2382); type: functional;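 also: NIH3T3 fibroblasts with HSF1-driven luciferase reporter stressed by proteasome inhibitor MG132; luminescence from HSF1-driven luciferase expression after 8 hours of MG132 stress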
T2 sequence (P38532 whole entry): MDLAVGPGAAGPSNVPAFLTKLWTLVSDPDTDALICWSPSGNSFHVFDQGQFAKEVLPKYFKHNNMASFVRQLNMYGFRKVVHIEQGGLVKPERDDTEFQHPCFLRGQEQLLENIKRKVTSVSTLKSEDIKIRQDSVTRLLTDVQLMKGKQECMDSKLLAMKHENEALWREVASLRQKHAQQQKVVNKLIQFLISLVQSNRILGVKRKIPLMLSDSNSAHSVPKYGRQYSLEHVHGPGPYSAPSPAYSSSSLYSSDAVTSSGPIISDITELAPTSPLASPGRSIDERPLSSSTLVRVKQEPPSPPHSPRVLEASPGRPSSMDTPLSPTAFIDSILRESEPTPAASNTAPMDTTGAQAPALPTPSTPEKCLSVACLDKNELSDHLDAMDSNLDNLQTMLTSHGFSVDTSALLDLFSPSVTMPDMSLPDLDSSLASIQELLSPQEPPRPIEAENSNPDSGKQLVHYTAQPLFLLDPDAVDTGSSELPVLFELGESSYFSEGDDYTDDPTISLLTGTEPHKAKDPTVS

[6] = molecular target: Fructose-bisphosphate aldolase (Mycobacterium tuberculosis, UniProt P9WQA3); test: Fluorescence-based biochemical high throughput dose response assay for inhibitors of the fructose-bisphosphate aldolase (FBA) of M. tuberculosis.; type: functional
[7] = Trypanosoma cruzi growth suppression in host cells – NIH3T3 host cells, beta-gal luminescence, confirmation (AID 2044); type: functional, cell-based;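 also: intracellular parasites grown in NIH/3T3 mouse fibroblasts as host cells; luminescent beta-galactosidase reporter signal from transgenic T. cruzi replicating inside host cells; inhibitors lower the luminescence signal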
[8] = NIH3T3 cell viability loss – ATP luminescence, mouse fibroblasts, counter-screen, dose response (AID 2010); type: functional, cell-based;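 also: cells exposed to compound for about 90 hours before reading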
[9] = molecular target: Voltage-dependent T-type calcium channel subunit alpha-1H (Homo sapiens, UniProt O95180); type: functional;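 also: channel activity triggered by adding a high calcium stimulation buffer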
[10] = molecular target: T3, Corticotropin-releasing factor receptor 2/Corticotropin-releasing factor-binding protein (Homo sapiens, UniProt P24387+Q13324); test: Dose Response confirmation of uHTS hits for small molecule antagonists of the CRF-binding protein and CRF-R2 receptor complex.; type: functional; conditions: read-out: IC50_Mean
T3 sequence (Q13324 whole entry): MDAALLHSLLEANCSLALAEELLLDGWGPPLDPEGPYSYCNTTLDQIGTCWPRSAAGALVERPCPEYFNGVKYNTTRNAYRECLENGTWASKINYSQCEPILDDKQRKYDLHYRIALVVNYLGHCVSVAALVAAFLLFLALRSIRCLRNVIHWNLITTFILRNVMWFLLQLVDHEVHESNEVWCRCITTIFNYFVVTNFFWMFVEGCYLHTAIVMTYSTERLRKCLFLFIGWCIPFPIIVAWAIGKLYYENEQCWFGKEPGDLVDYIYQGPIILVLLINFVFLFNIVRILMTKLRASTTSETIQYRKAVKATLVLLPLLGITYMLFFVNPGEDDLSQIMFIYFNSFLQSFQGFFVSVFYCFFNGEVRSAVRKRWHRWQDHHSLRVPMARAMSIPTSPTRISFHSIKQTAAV
T3 sequence (P24387 whole entry): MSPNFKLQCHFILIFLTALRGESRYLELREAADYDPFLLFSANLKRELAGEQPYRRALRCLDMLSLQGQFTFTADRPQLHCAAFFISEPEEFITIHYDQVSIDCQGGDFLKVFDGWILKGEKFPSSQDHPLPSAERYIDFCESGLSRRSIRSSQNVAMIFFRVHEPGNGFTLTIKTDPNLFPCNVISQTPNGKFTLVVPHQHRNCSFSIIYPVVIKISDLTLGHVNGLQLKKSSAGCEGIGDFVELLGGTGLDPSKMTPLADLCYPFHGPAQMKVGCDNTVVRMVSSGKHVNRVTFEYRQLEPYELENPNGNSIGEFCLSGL

[11] = molecular target: T3, Corticotropin-releasing factor receptor 2/Corticotropin-releasing factor-binding protein; test: activators of CRF receptor 2 with binding protein – uHTS hits, confirmation (AID 602473); type: functional; conditions: read-out: EC50_Mean
Beta-galactosidase = Beta-galactosidase (Escherichia coli, UniProt Q8VNN2); test: Dose response counterscreen for EBI2 assay utilizing the enzyme, b-galactosidase.; type: functional
[12] = molecular target: T2, Heat shock factor protein 1; test: enhancement of HSF1-driven luciferase signal – cell-based, NIH3T3, luminescence, dose retest, confirmation (AID 435004); type: functional;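 also: stress induced by proteasome inhibitor MG132 added 30 min after compound; luciferase reporter driven by HSF1 response element in NIH3T3 cells; actives raise luminescence as potentiators of the MG132 stress response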
Prothrombin = Prothrombin (Homo sapiens, UniProt P00734); test: Thrombin 1536 HTS Dose Response Confirmation. [Related pubchem assays: 1046 (Thrombin 1536 HTS; hits were confirmed in this assay)]; type: functional
H9c2 = test: cells; type: functional, cell-based; conditions: Rattus norvegicus, H9c2, Myocardium;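 also: confirmatory concentration-response retest of ultra-high-throughput screening hits for modulation of myocardial damage; cell death induced by hydrogen peroxide oxidative stress; compound pretreatment for 60 min then peroxide exposure for 2 h; potency is for protecting the cells against peroxide damage rather than for killing them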
[13] = A549 cell cytotoxicity, dose response, cytotoxicity control, plate reader, cherry-pick, antagonist series (AID 743412); type: functional, cell-based
[14] = toxicity toward HepG2 liver cells – cell-based, plate reader, cherry-pick, antagonist series, cytotoxicity control, dose response (AID 743416); type: functional
[15] = blockers of bursicon-stimulated LGR2 cAMP reporter – cell-based, HEK293, CRE-luciferase reporter, cherry pick, set 2, dose response (AID 743343); type: functional;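 also: transfected cells were stimulated with diluted bursicon conditioned medium after compound addition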
[16] = blockade of melanocortin 4 receptor signaling – cell-based, plate reader, cherry pick, counter-screen for LGR2 antagonist project, dose response (AID 743444); type: functional;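 also: transfected HEK 293 cells stimulated with alpha-MSH peptide; potency of inhibitors of the alpha-MSH evoked signal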
[17] = general mammalian cell viability loss – inhibitor set, cherry-pick, set 2, cytotoxicity control for miR-122 modulator project, dose response (AID 720697); type: functional, cell-based

Beta-galactosidase, sequence (Q8VNN2 whole entry): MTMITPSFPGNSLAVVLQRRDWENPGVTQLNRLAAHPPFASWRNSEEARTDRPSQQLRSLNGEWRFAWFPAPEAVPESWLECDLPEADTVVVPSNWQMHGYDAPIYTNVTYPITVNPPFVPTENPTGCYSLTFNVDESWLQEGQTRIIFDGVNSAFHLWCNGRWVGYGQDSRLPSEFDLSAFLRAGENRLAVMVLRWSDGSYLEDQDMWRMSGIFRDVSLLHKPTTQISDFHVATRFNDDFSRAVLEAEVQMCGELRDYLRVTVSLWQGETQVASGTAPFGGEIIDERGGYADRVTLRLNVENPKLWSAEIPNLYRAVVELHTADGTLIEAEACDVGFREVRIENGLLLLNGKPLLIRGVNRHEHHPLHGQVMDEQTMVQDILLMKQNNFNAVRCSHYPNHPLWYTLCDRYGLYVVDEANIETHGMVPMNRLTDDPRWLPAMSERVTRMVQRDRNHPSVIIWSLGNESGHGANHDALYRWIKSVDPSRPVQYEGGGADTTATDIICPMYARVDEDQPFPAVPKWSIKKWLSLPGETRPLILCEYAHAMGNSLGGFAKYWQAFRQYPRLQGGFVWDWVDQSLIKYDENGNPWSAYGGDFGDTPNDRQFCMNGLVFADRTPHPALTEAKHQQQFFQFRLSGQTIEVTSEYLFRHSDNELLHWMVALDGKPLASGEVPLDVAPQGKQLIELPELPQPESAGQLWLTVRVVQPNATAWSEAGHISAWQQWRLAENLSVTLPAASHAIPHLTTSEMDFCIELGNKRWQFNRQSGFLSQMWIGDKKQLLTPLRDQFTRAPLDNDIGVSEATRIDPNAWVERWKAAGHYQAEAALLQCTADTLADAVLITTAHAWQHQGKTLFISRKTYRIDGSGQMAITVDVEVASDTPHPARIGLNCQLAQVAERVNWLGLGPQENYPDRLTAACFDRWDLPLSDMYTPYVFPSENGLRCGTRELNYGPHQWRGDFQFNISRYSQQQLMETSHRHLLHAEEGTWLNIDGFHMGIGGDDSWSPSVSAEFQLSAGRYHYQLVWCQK
Fructose-bisphosphate aldolase, sequence (P9WQA3 whole entry): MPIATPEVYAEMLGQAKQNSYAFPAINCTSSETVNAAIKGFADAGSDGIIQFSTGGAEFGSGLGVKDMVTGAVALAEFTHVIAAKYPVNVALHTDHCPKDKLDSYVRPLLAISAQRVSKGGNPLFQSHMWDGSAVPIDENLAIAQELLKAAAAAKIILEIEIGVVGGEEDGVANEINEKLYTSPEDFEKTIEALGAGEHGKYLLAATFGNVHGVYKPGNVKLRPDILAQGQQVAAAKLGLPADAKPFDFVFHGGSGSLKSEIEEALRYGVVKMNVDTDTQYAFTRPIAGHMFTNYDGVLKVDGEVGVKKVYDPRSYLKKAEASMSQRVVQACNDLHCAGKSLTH
Voltage-dependent T-type calcium channel subunit alpha-1H, sequence (O95180 whole entry): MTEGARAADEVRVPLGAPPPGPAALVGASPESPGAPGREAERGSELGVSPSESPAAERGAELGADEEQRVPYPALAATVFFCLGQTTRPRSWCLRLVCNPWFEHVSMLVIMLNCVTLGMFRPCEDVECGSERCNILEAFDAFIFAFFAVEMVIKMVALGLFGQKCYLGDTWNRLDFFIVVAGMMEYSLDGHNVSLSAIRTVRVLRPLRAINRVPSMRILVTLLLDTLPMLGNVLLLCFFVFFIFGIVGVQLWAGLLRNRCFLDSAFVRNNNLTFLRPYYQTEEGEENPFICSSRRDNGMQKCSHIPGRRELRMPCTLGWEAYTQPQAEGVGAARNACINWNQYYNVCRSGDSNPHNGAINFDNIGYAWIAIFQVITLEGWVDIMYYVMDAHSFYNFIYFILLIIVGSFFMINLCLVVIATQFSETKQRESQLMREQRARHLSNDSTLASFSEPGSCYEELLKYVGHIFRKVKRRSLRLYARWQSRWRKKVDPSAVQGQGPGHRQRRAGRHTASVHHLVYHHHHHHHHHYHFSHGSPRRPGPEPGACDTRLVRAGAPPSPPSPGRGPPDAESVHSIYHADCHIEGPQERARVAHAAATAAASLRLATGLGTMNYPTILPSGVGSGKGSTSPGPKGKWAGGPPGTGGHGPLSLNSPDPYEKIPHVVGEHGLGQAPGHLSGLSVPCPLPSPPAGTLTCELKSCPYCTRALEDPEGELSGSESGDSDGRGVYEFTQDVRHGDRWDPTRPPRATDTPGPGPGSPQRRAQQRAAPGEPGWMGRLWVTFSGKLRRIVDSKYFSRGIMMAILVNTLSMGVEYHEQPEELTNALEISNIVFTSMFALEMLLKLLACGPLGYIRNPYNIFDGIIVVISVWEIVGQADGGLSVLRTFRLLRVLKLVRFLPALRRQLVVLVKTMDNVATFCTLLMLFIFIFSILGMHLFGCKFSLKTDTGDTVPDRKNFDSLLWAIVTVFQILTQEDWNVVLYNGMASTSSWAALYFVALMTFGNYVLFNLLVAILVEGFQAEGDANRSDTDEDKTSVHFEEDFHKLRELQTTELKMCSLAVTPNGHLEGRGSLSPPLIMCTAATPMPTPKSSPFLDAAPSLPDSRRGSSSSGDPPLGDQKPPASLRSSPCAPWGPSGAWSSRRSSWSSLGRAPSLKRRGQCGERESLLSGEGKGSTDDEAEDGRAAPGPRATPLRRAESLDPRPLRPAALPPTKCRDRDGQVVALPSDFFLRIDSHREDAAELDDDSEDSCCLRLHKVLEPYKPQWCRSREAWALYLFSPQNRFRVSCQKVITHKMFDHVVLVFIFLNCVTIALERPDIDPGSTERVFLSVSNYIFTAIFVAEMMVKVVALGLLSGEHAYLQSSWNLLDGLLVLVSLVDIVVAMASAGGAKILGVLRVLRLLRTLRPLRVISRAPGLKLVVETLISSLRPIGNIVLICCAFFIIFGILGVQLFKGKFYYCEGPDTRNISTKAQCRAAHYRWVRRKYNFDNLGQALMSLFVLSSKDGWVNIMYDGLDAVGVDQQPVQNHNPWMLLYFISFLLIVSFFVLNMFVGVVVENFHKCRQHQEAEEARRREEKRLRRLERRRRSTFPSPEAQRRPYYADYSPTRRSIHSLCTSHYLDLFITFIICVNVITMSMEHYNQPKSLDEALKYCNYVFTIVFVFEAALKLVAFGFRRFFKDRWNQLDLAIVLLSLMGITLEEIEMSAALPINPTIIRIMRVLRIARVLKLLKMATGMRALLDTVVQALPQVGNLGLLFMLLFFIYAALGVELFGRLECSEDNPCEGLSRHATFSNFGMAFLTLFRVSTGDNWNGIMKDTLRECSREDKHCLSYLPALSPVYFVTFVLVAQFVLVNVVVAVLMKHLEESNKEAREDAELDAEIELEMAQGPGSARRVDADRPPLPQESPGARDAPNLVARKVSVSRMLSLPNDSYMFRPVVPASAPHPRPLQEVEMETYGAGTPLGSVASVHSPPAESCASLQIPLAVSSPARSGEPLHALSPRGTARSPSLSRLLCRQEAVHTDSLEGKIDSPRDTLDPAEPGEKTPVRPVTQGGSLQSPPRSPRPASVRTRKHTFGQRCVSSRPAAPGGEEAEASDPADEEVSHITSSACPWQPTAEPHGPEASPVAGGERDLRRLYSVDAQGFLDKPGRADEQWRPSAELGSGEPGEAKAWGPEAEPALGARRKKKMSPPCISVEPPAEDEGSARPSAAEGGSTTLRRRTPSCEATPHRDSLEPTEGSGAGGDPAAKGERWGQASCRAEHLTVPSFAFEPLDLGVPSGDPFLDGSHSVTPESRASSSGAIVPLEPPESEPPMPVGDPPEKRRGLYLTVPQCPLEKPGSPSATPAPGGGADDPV

O=C(CC1C(=O)NCCN1Cc1ccccn1)NCCc1ccccc1F (stereo unspecified)
IC50 (cells [1]): > 29.9 µM (inactive) | EC50 [2]: 2.12 µM (active) | IC50 [3]: 5.23 µM (active) | EC50 (cells [4]): > 29.9 µM (inactive)

Cc1c(O)ccc2c(CC(=O)N[C@@H](Cc3ccc(O)cc3)C(=O)O)cc(=O)oc12
EC50 [5]: > 195 µM (not active) | IC50 [6]: 0.906 µM (active)

Cc1ccc(OCC(=O)N2CCN(c3nnc(-c4ccc(C)cc4)c4ccccc34)CC2)cc1
EC50 [7]: 3.12 µM (active) | EC50 [8]: > 60 µM (not active) | EC50 [9]: 2.35 µM (active) | IC50 [10]: > 47.1 µM (inactive) | EC50 [11]: > 53 µM (inactive) | IC50 (Beta-galactosidase): > 80 µM (inactive)

CN1CCN(C(=O)c2cc3sc4ccccc4c3s2)CC1
EC50 [12]: > 260 µM (inactive) | IC50 (Beta-galactosidase): > 80 µM (inactive)

COc1cc(C(=O)Nc2nc(-c3cccs3)cs2)cc(OC)c1OC
IC50 (Prothrombin): 2.64 µM (active) | IC50 (H9c2): > 79 µM (inactive) | AC50 [13]: > 52 µM (inactive) | AC50 [14]: > 52 µM (inactive) | AC50 [15]: 23.3 µM (active) | AC50 [16]: 27.7 µM (active)

CCOC(=O)c1ccc(NC(=O)c2ccc(CN3CCOCC3)cc2)cc1
AC50 [17]: 19.3 µM (active)
